What was measured:
Type in all cases: physicochemical
[1] = Thermal gravimetric analysis (TGA) and DSC: thermal degradation; conditions: heated at 10° C./minute under nitrogen
Experimental: (§1) DSC data was collected on a TA Instruments Q2000 DSC. A predefined amount of the sample, 2.0 to 10.0 mg, was placed in an aluminum pan and heated at 5° C./minute from 25° C. to 220° C. A purge of dry nitrogen at 100 mL/minute was maintained over the sample. The instrument control and data acquisition are acquired using Q Advantage software release version 5.5.23. The data was processed and presented using the TA Universal Analysis 2000 software version 4.5A build 4.5.0.5.
as §1, with “TGA” for “DSC”, “Q5000 TGA.” for “Q2000 DSC.”, “10°” for “5°”, “40°” for “25°”, “300° C., or varied as experimentation dictated.” for “220° C.”, “25” for “100”

[2] = Dynamic vapor sorption (DVS), with XRPD on the post-DVS sample; conditions: for DVS weight increase during exposure to 80% RH: 25° C., humidity ramped 0 to 95% RH, value at 80% RH; for structural change by XRPD after DVS (exposure to high humidity): XRPD on post-DVS sample; for hygroscopicity classification from DVS: based on weight increase up to 80% RH
Experimental: Dynamic vapor sorption (DVS) was carried out using the TA Instruments Q5000 SA. A predefined amount of the sample, 2.0 to 10.0 mg, was placed in a platinum pan. The sample was allowed to equilibrate at 50° C. at 0% RH for a period of 60 minutes. The sample was then equilibrated at 25° C. before ramping the humidity from 0 to 95% RH at 5% increments every hour. A similar ramp profile was used for desorption cycle. XRPD analysis was also performed on post DVS sample.

[3] = Competitive suspension equilibration study; conditions: room temperature and 60° C.
Experimental: A competitive suspension equilibration study was carried out to identify the relative stability of the two crystalline forms of the compound of formula (I) in aqueous and organic solvent systems. Competitive suspension equilibration experiments were conducted in ethyl acetate, 50% methanol/water (v/v) and 50% acetonitrile/water (v/v) at room temperature and 60° C. […] Further crystalline forms of the compound of formula (I) (e.g., the first and second crystalline forms of the compound of formula (I)) were added for conversion material and to act as seeds. Each suspension was allowed to stir for 7 or 14 days, and were analyzed via XRPD to determine which form the solids had converted to.

[4] = Evaporative salt and co-crystal screen (1H NMR, HPLC); conditions: combined with sodium hydroxide and potassium hydroxide
[5] = Temperature cycled single solvent slurry screen
Experimental: Magnetic stirrers were added to vials, and the suspensions were cycled between 50° C. and 5° C. for three cycles with agitation. Solid samples generated were analyzed via XRPD to assess crystallinity and crystal structure. […] Solid samples were obtained from slurries in all other solvents screened.

[6] = Binary solvent slurry screen; conditions: room temperature
Experimental: Solvent combinations were selected based on solvent properties, functionality, and miscibility. […] Magnetic stirrers were added to vials, and the suspensions were allowed to stir at room temperature for 5 days.

[7] = Single solvent slurry screen
Experimental: Magnetic stirrers were added to vials, and the suspensions were allowed to stir at room temperature for 4 days. Solid samples generated were analyzed via XRPD to assess crystallinity and crystal structure.

Row | Compound | molecular degradation onset (TGA/DSC) [1] | molecular degradation temperature (TGA/DSC), degradation from [1] | DVS weight increase during exposure to 80% RH [2] | structural change by XRPD after DVS (exposure to high humidity) [2] | hygroscopicity classification from DVS [2] | form conversion of mixed first and second crystalline forms (XRPD) ([3]; aqueous solvents (methanol/water 14 days, acetonitrile/water 7 days)) | form conversion of mixed first and second crystalline forms (XRPD) ([3]; ethyl acetate, methanol, acetonitrile, within seven days) | chemical stability in a basic environment (1H NMR, HPLC) [4] | crystal structure after slurry (XRPD), form stability ([5]; single solvents except THF, cycled between 50° C. and 5° C. for three cycles) | solubility in THF ([5]; temperature cycled slurry) | crystal structure after slurry (XRPD), form stability ([6]; 50/50 (v/v) solvent mixtures except methanol/THF, 5 days) | solubility in methanol/THF ([6]; 50/50 (v/v)) | solubility in THF ([7]; room temperature slurry) | crystal structure after slurry (XRPD), form stability ([7]; single solvents except THF, stirred at room temperature for 4 days)
1 | COC[C@H](NC(=O)c1ccn(S(C)(=O)=O)c1)C(=O)Nc1nc(-c2cccc(N3C[C@@H](C)O[C@@H](C)C3)n2)cs1 [first crystalline form of the compound of formula (I)] | 254.3 °C | 220 °C | 1.4 % (w/w) | no structural changes occurred | slightly hygroscopic |  |  |  |  |  |  |  |  | 
2 | COC[C@H](NC(=O)c1ccn(S(C)(=O)=O)c1)C(=O)Nc1nc(-c2cccc(N3C[C@@H](C)O[C@@H](C)C3)n2)cs1 [compound of formula (I)] |  |  |  |  |  | did not result in the conversion of either crystalline form to the other | fully converted to the second crystalline form | molecular degradation was visible |  |  |  |  |  | 
3 | COC[C@H](NC(=O)c1ccn(S(C)(=O)=O)c1)C(=O)Nc1nc(-c2cccc(N3C[C@@H](C)O[C@@H](C)C3)n2)cs1 [second crystalline form of the compound of formula (I)] |  | 240 °C | 0.04 % (w/w) | no structural changes occurred | non-hygroscopic |  |  |  | the same crystal structure | extremely high | the same crystal structure | high | extremely high | the same crystal structure
